Reference: patent US20230085307A1, “PYRIDAZINONE COMPOUND AND HERBICIDE” (NISSAN CHEMICAL CORPORATION, priority 2019, published 2023)

Key:
redroot pigweed [1] = test: Test Example 4: herbicidal effect by soil treatment (Table 19, symbol N); format: in vivo, redroot pigweed (Amaranthus retroflexus); conditions: amount of applied herbicide 320 g/ha
Procedure, shortened: (§1)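 Soil-surface application: an emulsion agent diluted with water to the predetermined dose is sprayed uniformly over seeds lying under roughly 1.5 cm of sterilized diluvial soil. Boxes stay in a greenhouse at 25° C. to 30° C. Three weeks later, each species is graded on previously defined criteria.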

persian speedwell = test: Test Example 5: herbicidal effect by foliage application, plastic box (Table 20, symbol R); format: in vivo, Persian speedwell (Veronica persica); conditions: foliage application, 320 g/ha, three weeks after application
Procedure, shortened: (§2)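 Sow seeds spot-wise in sterilized diluvial soil; cover with ~1.5 cm soil. Grow 14 days in greenhouse, 25° C. to 30° C. Spray foliage with emulsion diluted to predetermined amount. Rate effect after 3 weeks.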

barnyard grass [2] = test: Test Example 4: herbicidal effect by soil treatment (Table 19, symbol H); format: in vivo, barnyard grass (Echinochloa crus-galli); conditions: amount of applied herbicide 320 g/ha
Procedure, shortened: as §1

green foxtail [3] = test: Test Example 4: herbicidal effect by soil treatment (Table 19, symbol G); format: in vivo, green foxtail (Setaria viridis); conditions: amount of applied herbicide 320 g/ha
Procedure, shortened: as §1

southern crabgrass = test: Test Example 4: herbicidal effect by soil treatment (Table 19, symbol F); format: in vivo, southern crabgrass (Digitaria ciliaris); conditions: amount of applied herbicide 320 g/ha
Procedure, shortened: as §1

rice flat sedge = test: Test Example 3: herbicidal effect by foliage application, Wagner pot (Table 18, symbol E); format: in vivo, rice flat sedge (Cyperus iria); conditions: 320 g/ha
Procedure, shortened: (§3)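 Plants were sown in alluvial soil held under 0.1–0.5 cm standing water and grown 14 days in a greenhouse at 25–30 °C. An emulsifiable formulation, water-diluted to the set dose, was then sprayed onto the foliage, and effects were scored three weeks later using previously defined criteria.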

chickweed [4] = test: Test Example 4: herbicidal effect by soil treatment (Table 19, symbol P); format: in vivo, common chickweed (Stellaria media); conditions: amount of applied herbicide 320 g/ha
Procedure, shortened: as §1

windgrass = test: Test Example 5: herbicidal effect by foliage application, plastic box (Table 20, symbol L); format: in vivo, windgrass (Apera spica-venti); conditions: foliage application, 320 g/ha, three weeks after application
Procedure, shortened: as §2

velvetleaf [5] = test: Test Example 4: herbicidal effect by soil treatment (Table 19, symbol M); format: in vivo, velvetleaf (Abutilon theophrasti); conditions: amount of applied herbicide 320 g/ha
Procedure, shortened: as §1

redroot pigweed [6] = test: Test Example 5: herbicidal effect by foliage application, plastic box (Table 20, symbol N); format: in vivo, redroot pigweed (Amaranthus retroflexus); conditions: foliage application, 320 g/ha, three weeks after application
Procedure, shortened: as §2

lambsquarters = test: Test Example 4: herbicidal effect by soil treatment (Table 19, symbol O); format: in vivo, lambsquarters (Chenopodium album); conditions: amount of applied herbicide 320 g/ha
Procedure, shortened: as §1

Japanese bulrush = test: Test Example 2: herbicidal activity, application during weed generation under submerged conditions (Table 17, symbol B); format: in vivo, Japanese bulrush (Schoenoplectus juncoides); conditions: AAH 320 g/ha; application during weed generation, submerged conditions
Procedure, shortened: (§4)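 Mixed weed seedlings in alluvial soil under a 4 cm water layer, greenhouse-grown at 25–30° C. Compound given as a diluted emulsion into the floodwater at the 1–2 leaf stage; response graded after three weeks.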

barnyard grass [7] = test: Test Example 3: herbicidal effect by foliage application, Wagner pot (Table 18, symbol H); format: in vivo, barnyard grass (Echinochloa crus-galli); conditions: 320 g/ha
Procedure, shortened: as §3

green foxtail [8] = test: Test Example 5: herbicidal effect by foliage application, plastic box (Table 20, symbol G); format: in vivo, green foxtail (Setaria viridis); conditions: foliage application, 320 g/ha, three weeks after application
Procedure, shortened: as §2

blackgrass = test: Test Example 5: herbicidal effect by foliage application, plastic box (Table 20, symbol J); format: in vivo, blackgrass (Alopecurus myosuroides); conditions: foliage application, 320 g/ha, three weeks after application
Procedure, shortened: as §2

Italian ryegrass [9] = test: Test Example 5: herbicidal effect by foliage application, plastic box (Table 20, symbol K); format: in vivo, Italian ryegrass (Lolium multiflorum); conditions: foliage application, 320 g/ha, three weeks after application
Procedure, shortened: as §2

Italian ryegrass [10] = test: Test Example 4: herbicidal effect by soil treatment (Table 19, symbol K); format: in vivo, Italian ryegrass (Lolium multiflorum); conditions: amount of applied herbicide 320 g/ha
Procedure, shortened: as §1

velvetleaf [11] = test: Test Example 5: herbicidal effect by foliage application, plastic box (Table 20, symbol M); format: in vivo, velvetleaf (Abutilon theophrasti); conditions: foliage application, 320 g/ha, three weeks after application
Procedure, shortened: as §2

late watergrass = test: Test Example 2: herbicidal activity, application during weed generation under submerged conditions (Table 17, symbol A); format: in vivo, late watergrass (Echinochloa oryzicola); conditions: AAH 320 g/ha; application during weed generation, submerged conditions
Procedure, shortened: as §4

wild oat [12] = test: Test Example 5: herbicidal effect by foliage application, plastic box (Table 20, symbol I); format: in vivo, wild oat (Avena fatua); conditions: foliage application, 320 g/ha, three weeks after application
Procedure, shortened: as §2

wild oat [13] = test: Test Example 4: herbicidal effect by soil treatment (Table 19, symbol I); format: in vivo, wild oat (Avena fatua); conditions: amount of applied herbicide 320 g/ha
Procedure, shortened: as §1

chickweed [14] = test: Test Example 5: herbicidal effect by foliage application, plastic box (Table 20, symbol P); format: in vivo, common chickweed (Stellaria media); conditions: foliage application, 320 g/ha, three weeks after application
Procedure, shortened: as §2

COc1ccc(-c2sc3ccccc3c2-c2c(O)c(C)nn(C)c2=O)cc1OC [1-072]
herbicidal effect rating, N: redroot pigweed (redroot pigweed [1]): 5 (Herbicidal rate of 90% or more (almost completely withered))
herbicidal effect grade, R: persian speedwell (persian speedwell): 5 (Herbicidal rate of 90% or more (almost completely withered))
herbicidal effect rating, H: barnyard grass (barnyard grass [2]): 5 (Herbicidal rate of 90% or more (almost completely withered))
herbicidal effect rating, G: green foxtail (green foxtail [3]): 5 (Herbicidal rate of 90% or more (almost completely withered))
herbicidal effect rating, F: southern crabgrass (southern crabgrass): 5 (Herbicidal rate of 90% or more (almost completely withered))
herbicidal effect on E (rice flat sedge), rating 0-5 (rice flat sedge): 5 (Herbicidal rate of 90% or more (almost completely withered))
herbicidal effect rating, P: chickweed (chickweed [4]): 4 (Herbicidal rate of 70% or more and less than 90%)
herbicidal effect grade, L: windgrass (windgrass): 1 (Herbicidal rate of 5% or more and less than 20%)
herbicidal effect rating, M: velvetleaf (velvetleaf [5]): 5 (Herbicidal rate of 90% or more (almost completely withered))
herbicidal effect grade, N: redroot pigweed (redroot pigweed [6]): 5 (Herbicidal rate of 90% or more (almost completely withered))
herbicidal effect rating, O: lambsquarters (lambsquarters): 5 (Herbicidal rate of 90% or more (almost completely withered))
herbicidal effect rating, B: Japanese bulrush (Japanese bulrush): 3 (Herbicidal rate of 40% or more and less than 70%)
herbicidal effect on H (barnyard grass), rating 0-5 (barnyard grass [7]): 5 (Herbicidal rate of 90% or more (almost completely withered))
herbicidal effect grade, G: green foxtail (green foxtail [8]): 5 (Herbicidal rate of 90% or more (almost completely withered))
herbicidal effect grade, J: blackgrass (blackgrass): 3 (Herbicidal rate of 40% or more and less than 70%)
herbicidal effect grade, K: Italian ryegrass (Italian ryegrass [9]): 5 (Herbicidal rate of 90% or more (almost completely withered))
herbicidal effect rating, K: Italian ryegrass (Italian ryegrass [10]): 5 (Herbicidal rate of 90% or more (almost completely withered))
herbicidal effect grade, M: velvetleaf (velvetleaf [11]): 5 (Herbicidal rate of 90% or more (almost completely withered))
herbicidal effect rating, A: late watergrass (late watergrass): 2 (Herbicidal rate of 20% or more and less than 40%)
herbicidal effect grade, I: wild oat (wild oat [12]): 4 (Herbicidal rate of 70% or more and less than 90%)
herbicidal effect rating, I: wild oat (wild oat [13]): 2 (Herbicidal rate of 20% or more and less than 40%)
herbicidal effect grade, P: chickweed (chickweed [14]): 5 (Herbicidal rate of 90% or more (almost completely withered))
